In PMC5893132, “Selective inhibition of histamine-evoked Ca^2+ signals by compartmentalized cAMP in human bronchial airway smooth muscle cells” (Cell Calcium, 2018):

Tests used:
Type in all cases: cell-based, human
[1] = test system: histamine-evoked Ca^2+ signals in hBASMCs; assay: Histamine-evoked Ca2+ signals in populations of fluo-4-loaded hBASMCs; details: for effect on the sensitivity to histamine: trans Ned-19 1 μM or ryanodine 50 μM, 5 min, HBSS; for effect on histamine-evoked Ca2+ signals: pre-treatment: 8-Br-cGMP, IBMX 20 min, forskolin 10 μM, NKH477 10 μM, butaprost 10 μM, TCS2510 1 μM 5 min
Method: (§1) Two methods were used to measure [Ca^2+]i in populations of hBASMCs. For measurements using a FlexStation III plate-reader (Molecular Devices, Sunnyvale, CA, USA), hBASMCs were seeded into 96-well plates (10^4 cells per well). After about 4 days, when the cells were confluent, the medium was replaced with SMGM-2 without serum or growth factor supplements, and the cells were used after a further 24 h. This period in serum-free medium increased by about 2-fold the amplitude of the increases in [Ca^2+]i evoked by histamine (results not shown). Cells were washed with HEPES-buffered saline (HBS: 135 mM NaCl, 5.9 mM KCl, 1.2 mM MgCl2, 1.5 mM CaCl2, 11.6 mM HEPES, 11.5 mM D-glucose, pH 7.3), and loaded with fluo-4 by incubation with fluo-4-AM (2 μM) in HBS (100 μL per well) containing pluronic F127 (0.02%, v/v) and probenecid (2.5 mM). After 1 h at 20 °C, the medium was replaced with HBS (100 μL per well) containing probenecid (2.5 mM). After a further incubation at 20 °C for 1 h, the medium was replaced with HBS (60–80 μL per well) or nominally Ca^2+-free HBS, and the cells were used immediately for experiments at 20 °C. In some experiments, BAPTA (2.5 mM) was added to HBS during the recording; this reduced the free [Ca^2+] of the HBS to ∼120 nM without affecting the pH. Drug additions (20 μL at 4 or 5 times the final concentration) were added automatically. Fluorescence from fluo-4 (excitation 485 nm, emission 525 nm) was recorded at 1.44-s intervals using Softmax Pro 5.4 (Molecular Devices). Fluorescence was calibrated to [Ca^2+]i from: [Ca^2+]i=KDCa×(F−Fmin/Fmax−F) where, KDCa is the equilibrium dissociation constant of fluo-4 for Ca^2+ (345 nM), F is the recorded fluorescence, and Fmin and Fmax are the fluorescence values recorded after addition of triton-X-100 (0.1%, v/v) with either BAPTA (10 mM, Fmin) or CaCl2 (10 mM, Fmax). Although treatment with triton-X-100 releases fluo-4 from cells into the medium, the fluo-4 fluorescence is captured with the same efficiency whether it is trapped within cells or dispersed within the small volume of the wells (unpublished observations). Fmax was determined for each well at the end of an experiment, and the average value was used for each column of 8 wells. Fmin was determined from parallel wells on each plate.
For measurements of [Ca^2+]i using an FDSS 7000 FLIPR (Hamamatsu), hBASMCs were seeded into 384-well plates (8000 cells per well) in 20 μL of SMGM-2 containing 5% serum. After 24 h, the medium was replaced with 15 μL of serum-free SMGM-2, and after a further 6 h the cells were loaded with Ca^2+ indicator by addition of FLIPR calcium 4 assay kit (Molecular Devices) supplemented with probenecid (2.5 mM). The exact composition of this ‘no-wash’ indicator kit is not disclosed by the manufacturer, but it contains fluo-4-AM and components that reduce background fluorescence. The manufacture’s stock solution was diluted 10-fold into HBSS containing BSA (0.1%, w/v) and HEPES (20 mM); 5 μL of this solution was then added to each well (containing 15 μL of serum-free SMGM-2). After 2 h at 37 °C in humidified air containing 5% CO2, the plate was used for experiments at 20 °C. Most additions (5 μL) were prepared in HBSS supplemented with HEPES (20 mM) and BSA (0.1%, w/v). For more prolonged incubations, drugs were diluted in the initial loading medium (to avoid changes in dye-loading during the ‘no wash’ protocol). Fluorescence signals (excitation at 480 nm, emission at 540 nm) were calibrated to [Ca^2+]i after measurement of Fmin and Fmax uniquely for each well, using a KDCa = 345 nM.
All concentration-effect relationships were determined by addition of different drug concentrations to individual wells in the same multi-well plate, rather than by sequential additions to the same well. […]

[2] = test system: Ca^2+ signals evoked by histamine, bradykinin or carbachol in hBASMCs; assay: GPCR-evoked Ca2+ signals (histamine, bradykinin or carbachol, stated together) in hBASMCs; details: HBSS; for whether the inhibitor substantially affected the Ca2+ signals evoked by histamine, bradykinin or carbachol: ryanodine 50 μM or trans Ned-19 1 μM, 5 min
Method: as §1, with “This period in serum-free medium increased by about 2-fold the amplitude of the increases in [Ca^2+]i evoked by histamine (results not shown).” left out, “In some experiments, BAPTA (2.5 mM) was added to HBS during the recording; this reduced the free [Ca^2+] of the HBS to ∼120 nM without affecting the pH.” left out, “Although treatment with triton-X-100 releases fluo-4 from cells into the medium, the fluo-4 fluorescence is captured with the same efficiency whether it is trapped within cells or dispersed within the small volume of the wells (unpublished observations).” left out
(§2) For measurements of [Ca^2+]i using an FDSS 7000 FLIPR (Hamamatsu), hBASMCs were seeded into 384-well plates (8000 cells per well) in 20 μL of SMGM-2 containing 5% serum. […] The exact composition of this ‘no-wash’ indicator kit is not disclosed by the manufacturer, but it contains fluo-4-AM and components that reduce background fluorescence. […]

[3] = test system: intracellular cAMP in hBASMCs; assay: Intracellular cAMP in hBASMCs by mass spectrometry; details: IBMX 20 min; MS
Method: These methods were modified from. Confluent cultures of hBASMCs in 48-well plates were serum-deprived (6–24 h) and the medium was then replaced with HBSS (300 μL) containing HEPES (5 mM) and BSA (0.1%, w/v). Cells were stimulated at 20 °C, and reactions were terminated by aspiration of the medium and addition of acetonitrile (170 μL) containing dibutyryl cAMP (0.5 μM, to provide an internal standard). The plates were centrifuged (1500 xg, 15 min, 4 °C), supernatants (158 μL) were transferred to a 96-well, glass-coated plate (Thermo Scientific), and aqueous NH4HCO3 (pH 9.4, 93 μL) was added to each sample. After mixing and centrifugation (1500 xg, 15 min, 4 °C), samples were stored at 4 °C before analysis. Samples were analyzed by liquid chromatography tandem mass spectrometry (LC–MS/MS) using a Waters Acquity UPLC and a Sciex 5500 mass spectrometer equipped with an electrospray ionization source. ATP, ADP, AMP and cAMP were analyzed using a ZIC-pHILIC polymeric column (5-μm particle size, […]) maintained at 35 °C. Calibration standards were prepared in the lysis medium containing the internal standard, dibutyryl cAMP (0.5 μM). […] Samples were detected using multiple reaction monitoring in negative ion mode using the following parent-to-daughter mass transitions: cAMP m/z 327.9 → 133.9 (DP −100 V, CE −33 eV), AMP m/z 345.9 → 134.0 (DP −100 V, CE −50 eV), ADP m/z 426.0 → 134.0 (DP −100 V, CE −30 eV), ATP m/z 505.9 → 408.0 (DP −100 V, CE −35 eV), and internal standard dibutyryl cAMP m/z 468.1 → 175.0 (DP −100 V, CE −35 eV). Concentration-effect relationships were fitted to logistic equations for each experiment using GraphPad Prism (version 5, GraphPad Software, La Jolla, CA, USA), from which half-maximally effective drug concentrations (EC50), maximal responses, and Hill slopes were determined. For statistical analyses, maximal responses, Hill slopes and pEC50 (-logEC50) or pIC50 (-log of the half-maximal inhibitory concentration, IC50) values determined for individual experiments were pooled for statistical analysis. […]

[4] = test system: carbachol-evoked Ca^2+ signals in hBASMCs; assay: Carbachol-evoked Ca2+ signals in populations of fluo-4-loaded hBASMCs
Method: as §1, with “This period in serum-free medium increased by about 2-fold the amplitude of the increases in [Ca^2+]i evoked by histamine (results not shown).” left out, “In some experiments, BAPTA (2.5 mM) was added to HBS during the recording; this reduced the free [Ca^2+] of the HBS to ∼120 nM without affecting the pH.” left out, “Although treatment with triton-X-100 releases fluo-4 from cells into the medium, the fluo-4 fluorescence is captured with the same efficiency whether it is trapped within cells or dispersed within the small volume of the wells (unpublished observations).” left out
as §2

[5] = test system: bradykinin-evoked Ca^2+ signals in hBASMCs; assay: Bradykinin-evoked Ca2+ signals in populations of fluo-4-loaded hBASMCs
Method: as §1, with “This period in serum-free medium increased by about 2-fold the amplitude of the increases in [Ca^2+]i evoked by histamine (results not shown).” left out, “In some experiments, BAPTA (2.5 mM) was added to HBS during the recording; this reduced the free [Ca^2+] of the HBS to ∼120 nM without affecting the pH.” left out, “Although treatment with triton-X-100 releases fluo-4 from cells into the medium, the fluo-4 fluorescence is captured with the same efficiency whether it is trapped within cells or dispersed within the small volume of the wells (unpublished observations).” left out
as §2

[6] = test system: intracellular Ca^2+ stores of hBASMCs; assay: Ca2+ content of intracellular stores, by ionomycin in Ca2+-free HBS; details: isoproterenol, forskolin 10 μM, 5 min, 2-APB 5 min, higher concentrations needed than for inhibition of GPCR-evoked signals
L-type Ca^2+ channels = assay: Depolarization (K+)-evoked increase in [Ca2+]i in single fura-2-loaded hBASMCs; details: nimodipine 10 μM, 5 min; extracellular Na+ replaced with K+ 140 mM; all 44 cells, mean ± SD, single experiment; 50 ± 11 nM in absence
[7] = test system: LPA-evoked Ca^2+ signals in hBASMCs; assay: LPA-evoked Ca2+ signals in populations of fluo-4-loaded hBASMCs; details: PTX 100 ng·mL^−1, 24 h
Method: Two methods were used to measure [Ca^2+]i in populations of hBASMCs. For measurements using a FlexStation III plate-reader (Molecular Devices, Sunnyvale, CA, USA), hBASMCs were seeded into 96-well plates (10^4 cells per well). After about 4 days, when the cells were confluent, the medium was replaced with SMGM-2 without serum or growth factor supplements, and the cells were used after a further 24 h. […] Cells were washed with HEPES-buffered saline (HBS: 135 mM NaCl, 5.9 mM KCl, 1.2 mM MgCl2, 1.5 mM CaCl2, 11.6 mM HEPES, 11.5 mM D-glucose, pH 7.3), and loaded with fluo-4 by incubation with fluo-4-AM (2 μM) in HBS (100 μL per well) containing pluronic F127 (0.02%, v/v) and probenecid (2.5 mM). […] Fluorescence from fluo-4 (excitation 485 nm, emission 525 nm) was recorded at 1.44-s intervals using Softmax Pro 5.4 (Molecular Devices). Fluorescence was calibrated to [Ca^2+]i from: [Ca^2+]i=KDCa×(F−Fmin/Fmax−F) where, KDCa is the equilibrium dissociation constant of fluo-4 for Ca^2+ (345 nM), F is the recorded fluorescence, and Fmin and Fmax are the fluorescence values recorded after addition of triton-X-100 (0.1%, v/v) with either BAPTA (10 mM, Fmin) or CaCl2 (10 mM, Fmax). […] Fmax was determined for each well at the end of an experiment, and the average value was used for each column of 8 wells. Fmin was determined from parallel wells on each plate. […]

Question: With `COc1ccc([C@H]2N[C@H](C(=O)O)Cc3c2[nH]c2ccccc32)cc1CN1CCN(c2ccccc2F)CC1` (relative stereo) [trans Ned-19, trans-Ned-19] as the compound, how does the “effect on the sensitivity to histamine” value [1] read?
Answer: Its value is “slightly reduced”.

Question: What about the “whether the inhibitor substantially affected the Ca2+ signals evoked by histamine, bradykinin or carbachol” value [2] of the same compound?
Answer: Its value is “Neither”.

Question: Which results are given for `CC(C)Cn1c(=O)n(C)c(=O)c2[nH]cnc21` [IBMX, 3-isobutyl-1-methylxanthine]?
Answer: effect on intracellular cAMP [3]: an accumulation of intracellular cAMP; effect on histamine-evoked Ca2+ signals [1]: an inhibition of histamine-evoked Ca^2+ signals

Question: Which IC50 ([1]; Homo sapiens, histamine 10 μM, pre-incubation 30 min, n = 3, read-out: pIC50 for inhibition of the Ca2+ signals evoked by histamine (converted)) does the source give for `CCCCCCCCCCCCCCCCCCOCC(COP(=O)([O-])OCC[N+](C)(C)C)OC` (centres unmarked) [edelfosine] here?
Answer: The IC50 was 22.9 µM.

Question: What about the IC50 ([4]; Homo sapiens, carbachol 10 μM, pre-incubation 30 min, n = 3, read-out: pIC50 for inhibition of the Ca2+ signals evoked by carbachol (converted)) of the same compound?
Answer: The IC50 was 39.8 µM.

Question: And the IC50 ([5]; Homo sapiens, bradykinin 1 nM, pre-incubation 30 min, n = 3, read-out: pIC50 for inhibition of the Ca2+ signals evoked by bradykinin (converted))?
Answer: The IC50 was 33.9 µM.

Question: How did the “effect on histamine-evoked Ca2+ signals” value [1] turn out when `C=C[C@@]1(C)CC(=O)[C@]2(O)[C@@]3(C)[C@@H](O)CCC(C)(C)[C@@H]3[C@H](O)[C@H](OC(C)=O)[C@@]2(C)O1` [forskolin] was run?
Answer: Its value is “mimicked the effect of isoproterenol”.

Question: And the “effect on the Ca2+ content of the intracellular stores” value [6]?
Answer: The value was “Neither isoproterenol nor forskolin (10 μM, 5 min) affected”.

Question: `COCCOC(=O)C1=C(C)NC(C)=C(C(=O)OC(C)C)C1c1cccc([N+](=O)[O-])c1` (centres unmarked) [nimodipine] was tested. Which “effect on the increases in [Ca2+]i evoked by histamine, bradykinin and carbachol” value ([2]; added 5 min before stimulus, nimodipine 10 μM, 2-APB indicated concentrations) did it give?
Answer: Its value is “unaffected”.

Question: What about the “peak increase in [Ca2+]i on depolarization in presence of inhibitor” value (L-type Ca^2+ channels) of the same compound?
Answer: Its value is 20 ± 14 nM.

Question: How did the “effect on the sensitivity to histamine” value [1] turn out when `CC(C)[C@@]1(O)[C@@H](OC(=O)c2ccc[nH]2)[C@@]2(O)[C@@]3(C)C[C@]4(O)O[C@@]5([C@H](O)[C@@H](C)CC[C@]35O)[C@@]2(O)[C@@]14C` [ryanodine] was run?
Answer: The value was “slightly reduced”.

Question: What about the “whether the inhibitor substantially affected the Ca2+ signals evoked by histamine, bradykinin or carbachol” value [2] of the same compound?
Answer: Its value is “Neither”.

Question: What does the source list for Pertussis toxin [PTX]?
Answer: effect of pre-treatment on maximal amplitude of and sensitivity of the Ca2+ signals evoked by LPA [7]: significantly reduced; effect of pre-treatment on the Ca2+ signals evoked by histamine ([1]; PTX 100 ng·mL^−1, 24 h): had no effect; effect of pre-treatment on maximal amplitude of and sensitivity of the Ca2+ signals evoked by carbachol ([4]; PTX 100 ng·mL^−1, 24 h): significantly reduced; effect of pre-treatment on the Ca2+ signals evoked by bradykinin ([5]; PTX 100 ng·mL^−1, 24 h): had no effect
